Laboratory results as given in ChEMBL document CHEMBL5625228, “Design, synthesis, and bioactivity evaluation of novel amide/sulfonamide derivatives as potential anti-inflammatory agents against acute lung injury and ulcerative colitis” (Eur J Med Chem, 2023).
Calls of active or inactive are those of the source. No cut-off for these calls is given here.

Legend:
Mus musculus [1] = test: Antiinflammatory activity against DSS-induced acute colitis C57BL/6 mouse model assessed as increase in colon length at 5 mg/kg, po pretreated with DSS for 7 days followed by compound addition for every day for 10 days; type: functional, organism-based; conditions: time 10.0 day
J774.A1 [2] = test: Antiinflammatory activity against mouse J774.A1 cells assessed as inhibition of LPS-induced IL-6 production pretreated with compound for 30 mins followed by LPS induction and measured after 24 hrs by ELISA analysis; type: functional; conditions: time 1470 min; 24.5 h
J774.A1 [3] = test: Antiinflammatory activity against mouse J774.A1 cells assessed as inhibition of LPS-induced IL-6 release preincubated with compound for 30 mins followed by LPS-induction and measured after 24 hrs by ELISA analysis; type: functional, cell-based
J774.A1 [4] = test: Antiinflammatory activity against LPS-induced mouse J774.A1 cells assessed as downregulation of IL-6 mRNA level preincubated with compound for 30 mins followed by LPS-induction and measured after 6 hrs by qPCR analysis; type: functional, cell-based; conditions: time 390.0 min
J774.A1 [5] = test: Antiinflammatory activity against LPS-induced mouse J774.A1 cells assessed as downregulation of TNF-alpha mRNA level preincubated with compound for 30 mins followed by LPS-induction and measured after 6 hrs by qPCR analysis; type: functional, cell-based; conditions: time 390.0 min
J774.A1 [6] = test: Antiinflammatory activity against LPS-induced mouse J774.A1 cells assessed as increase in IkappaB-alpha level at 20 uM incubated for 2 hrs by Western blot analysis; type: functional, cell-based
J774.A1 [7] = test: Antiinflammatory activity against LPS-induced mouse J774.A1 cells assessed as downregulation of p65 level at 20 uM incubated for 2 hrs by Western blot analysis; type: functional, cell-based
Mus musculus [8] = test: Antiinflammatory activity against LPS-induced acute lung injury C57BL/6 mouse model assessed as reduction in pulmonary edema by measuring lung wet to dry ratio at 20 mg/kg, IG pretreated with compound for 30 mins followed by LPS-induction and measured after 6 hrs; type: functional, organism-based; conditions: time 390.0 min
Mus musculus [9] = test: Antiinflammatory activity against LPS-induced acute lung injury C57BL/6 mouse model assessed as reduction in protein concentration in BALF at 20 mg/kg, IG preincubated with compound for 30 mins followed by LPS-induction and measured after 6 hrs; type: functional, organism-based; conditions: time 390.0 min
Mus musculus [10] = test: Antiinflammatory activity against LPS-induced acute lung injury C57BL/6 mouse model assessed as inflammatory infiltration in lung at 20 mg/kg, IG preincubated with compound for 30 mins followed by LPS-induction and measured after 6 hrs by H and E staining based analysis; type: functional, organism-based; conditions: time 390.0 min
Mus musculus [11] = test: Antiinflammatory activity against DSS-induced acute colitis C57BL/6 mouse model assessed as reduction in splenomegaly at 5 mg/kg, po pretreated with DSS for 7 days followed by compound addition for every day for 10 days; type: functional, organism-based; conditions: time 10.0 day
Mus musculus [12] = test: Antiinflammatory activity against LPS-induced acute lung injury C57BL/6 mouse model assessed as pulmonary congestion in lung at 20 mg/kg, IG preincubated with compound for 30 mins followed by LPS-induction and measured after 6 hrs by H and E staining based analysis; type: functional, organism-based; conditions: time 390.0 min
Mus musculus [13] = test: Antiinflammatory activity against LPS-induced acute lung injury C57BL/6 mouse model assessed as lung tissue destruction at 20 mg/kg, IG preincubated with compound for 30 mins followed by LPS-induction and measured after 6 hrs by H and E staining based analysis; type: functional, organism-based; conditions: time 390.0 min
Mus musculus [14] = test: Antiinflammatory activity against LPS-induced acute lung injury C57BL/6 mouse model assessed as suppression of TNF-alpha level in BALF at 20 mg/kg, IG preincubated with compound for 30 mins followed by LPS-induction and measured after 6 hrs by ELISA analysis; type: functional, organism-based; conditions: time 390.0 min
Mus musculus [15] = test: Antiinflammatory activity against LPS-induced acute lung injury C57BL/6 mouse model assessed as suppression of TNF-alpha level in serum at 20 mg/kg, IG preincubated with compound for 30 mins followed by LPS-induction and measured after 6 hrs by ELISA analysis; type: functional, organism-based; conditions: time 390.0 min
Mus musculus [16] = test: Antiinflammatory activity against LPS-induced acute lung injury C57BL/6 mouse model assessed as suppression of IL-6 level in BALF at 20 mg/kg, IG preincubated with compound for 30 mins followed by LPS-induction and measured after 6 hrs by ELISA analysis; type: functional, organism-based; conditions: time 390.0 min
Mus musculus [17] = test: Antiinflammatory activity against LPS-induced acute lung injury C57BL/6 mouse model assessed as decrease in TNF-alpha mRNA level in lung at 20 mg/kg, IG preincubated with compound for 30 mins followed by LPS-induction and measured after 6 hrs by qPCR analysis; type: functional, organism-based; conditions: time 390.0 min
Mus musculus [18] = test: Antiinflammatory activity against DSS-induced acute colitis C57BL/6 mouse model assessed as reduction in IL-6 level in serum at 5 mg/kg, po pretreated with DSS for 7 days followed by compound addition for every day for 10 days by ELISA analysis; type: functional, organism-based; conditions: time 10.0 day
Mus musculus [19] = test: Antiinflammatory activity against DSS-induced acute colitis C57BL/6 mouse model assessed as reduction in mucosal damage in colon at 5 mg/kg, po pretreated with DSS for 7 days followed by compound addition for every day for 10 days by H and E staining based analysis; type: functional, organism-based; conditions: time 10.0 day
Mus musculus [20] = test: Antiinflammatory activity against DSS-induced acute colitis C57BL/6 mouse model assessed as reduction in inflammatory infiltration in colon at 5 mg/kg, po pretreated with DSS for 7 days followed by compound addition for every day for 10 days by H and E staining based analysis; type: functional, organism-based; conditions: time 10.0 day
Mus musculus [21] = test: Antiinflammatory activity against DSS-induced acute colitis C57BL/6 mouse model assessed as attenuation of white pulp at 5 mg/kg, po pretreated with DSS for 7 days followed by compound addition for every day for 10 days by H and E staining based analysis; type: functional, organism-based; conditions: time 10.0 day
[22] = Half life in Sprague-Dawley rat at 1 mg/kg, iv measured upto 24 hrs by LC-MS analysis; type: ADME, organism-based; conditions: in vivo
[23] = Half life in Sprague-Dawley rat at 10 mg/kg, po measured upto 24 hrs by LC-MS analysis; type: ADME, organism-based; conditions: in vivo
[24] = Tmax in Sprague-Dawley rat at 10 mg/kg, po measured upto 24 hrs by LC-MS analysis; type: ADME, organism-based; conditions: in vivo
[25] = Cmax in Sprague-Dawley rat at 1 mg/kg, iv measured upto 24 hrs by LC-MS analysis; type: ADME, organism-based; conditions: in vivo
[26] = AUC (0 to t) in Sprague-Dawley rat at 10 mg/kg, po measured upto 24 hrs by LC-MS analysis; type: ADME, organism-based; conditions: in vivo
[27] = AUC (0 to infinity) in Sprague-Dawley rat at 1 mg/kg, iv measured upto 24 hrs by LC-MS analysis; type: ADME, organism-based; conditions: in vivo
[28] = AUC (0 to infinity) in Sprague-Dawley rat at 10 mg/kg, po measured upto 24 hrs by LC-MS analysis; type: ADME, organism-based; conditions: in vivo
[29] = MRT (0 to t) in Sprague-Dawley rat at 1 mg/kg, iv measured upto 24 hrs by LC-MS analysis; type: ADME, organism-based; conditions: in vivo
[30] = Apparent volume of distribution in Sprague-Dawley rat at 1 mg/kg, iv measured upto 24 hrs by LC-MS analysis; type: ADME, organism-based; conditions: in vivo, read-out: Vz
[31] = Apparent volume of distribution in Sprague-Dawley rat at 10 mg/kg, po measured upto 24 hrs by LC-MS analysis; type: ADME, organism-based; conditions: in vivo
[32] = Clearance in Sprague-Dawley rat at 1 mg/kg, iv measured upto 24 hrs by LC-MS analysis; type: ADME, organism-based; conditions: in vivo
[33] = Clearance in Sprague-Dawley rat at 10 mg/kg, po measured upto 24 hrs by LC-MS analysis; type: ADME, organism-based; conditions: in vivo
[34] = Oral bioavailability in Sprague-Dawley rat at 10 mg/kg measured upto 24 hrs by LC-MS analysis; type: ADME, organism-based; conditions: in vivo

- IC50 (J774.A1 [3]): 610 nM
- half-life [22]: 1.8 h
- half-life [23]: 7.1 h
- Tmax [24]: 2.8 h
- Cmax [25]: 1320 ng/mL
- AUC(0-t) at 24 h [26]: 1060 ng·h/mL
- AUC(0-inf) [27]: 1120 ng·h/mL
- AUC [28]: 1183.5 ng·h/mL
- MRT last at 24 h [29]: 1.1 h
- Vd [30]: 2.3 L/kg
- Vz [31]: 80 L/kg
- clearance [32]: 15 mL/min/kg
- clearance [33]: 150 mL/min/kg
- bioavailability [34]: 10.6%
Compound: O=[N+]([O-])c1ccc(N2CCN(c3ccc(S(=O)(=O)NCc4ccccn4)cc3[N+](=O)[O-])CC2)cc1
- Activity (Mus musculus [1]): Active
- inhibition (INH) (J774.A1 [2]): 85.92%
- Activity (J774.A1 [4]): Active
- Activity (J774.A1 [5]): Active
- Activity (J774.A1 [6]): Active
- Activity (J774.A1 [7]): Active
- Activity (Mus musculus [8]): Active
- Activity (Mus musculus [9]): Active
- Activity (Mus musculus [10]): Active
- Activity (Mus musculus [11]): Active
- Activity (Mus musculus [12]): Active
- Activity (Mus musculus [13]): Active
- Activity (Mus musculus [14]): Active
- Activity (Mus musculus [15]): Active
- Activity (Mus musculus [16]): Active
- Activity (Mus musculus [17]): Active
- Activity (Mus musculus [18]): Active
- Activity (Mus musculus [19]): Active
- Activity (Mus musculus [20]): Active
- Activity (Mus musculus [21]): Active
